The record followed here is ChEMBL document CHEMBL5608175, “Lipid-conjugated nucleoside monophosphate and monophosphonate prodrugs: A versatile drug delivery paradigm” (Eur J Med Chem, 2024).

The subject of the first data set is SARS-CoV-2. Put plainly: Antiviral activity against SARS-CoV-2 2019-nCoV/USA_WA1/2020 infected in human PSC-derived lung epithelial cell assessed as reduction in viral replication pre-treated with compound for 30 mins followed by viral infection and measured after 48 hrs. It is filed as functional, organism-based. The conditions noted are these: Severe acute respiratory syndrome coronavirus 2, 2019-nCoV/USA_WA1/2020, Epithelial cell.
As usually defined, the EC50 is the concentration at which the effect is half-maximal. With `CCCCCCCCCCCCCCCCCCOC[C@@H](COP(=O)(O)OC[C@H]1O[C@@](C#N)(c2ccc3c(N)ncnn23)[C@H](O)[C@@H]1O)OCc1ccccc1`, the EC50 is 150 nM.

A further data set deals with SARS-CoV-2. Put plainly: Antiviral activity against SARS-CoV-2 2019-nCoV/USA_WA1/2020 infected in African green monkey Vero E6 cells assessed as reduction in viral replication pre-treated with compound for 30 mins followed by viral infection and measured after 48 hrs. The conditions noted are these: Severe acute respiratory syndrome coronavirus 2, 2019-nCoV/USA_WA1/2020, Vero C1008. It counts as functional, organism-based.
Take `CCCCCCCCCCCCCCCCCCOC[C@@H](COP(=O)(O)OC[C@H]1O[C@@](C#N)(c2ccc3c(N)ncnn23)[C@H](O)[C@@H]1O)OCc1ccccc1`: the EC50 came out at 140 nM.

A further data set concerns SARS-CoV-2. Put plainly: Antiviral activity against SARS CoV-2 USA-WA1/2020 clinical isolate infected in human Calu-3 cells assessed as reduction in viral infection. It is filed as functional, organism-based. The conditions noted are these: Severe acute respiratory syndrome coronavirus 2, USA-WA1/2020, Calu-3.
As to `CCCCCCCCCCCCCCCCCCOC[C@@H](COP(=O)(O)OC[C@H]1O[C@@](C#N)(c2ccc3c(N)ncnn23)[C@H](O)[C@@H]1O)OCc1cccc(C#N)c1`, the EC50 was 34 nM.

In the case of `CCCCCCCCCCCCCCCCCCOC[C@@H](COP(=O)(O)OC[C@H]1O[C@@](C#N)(c2ccc3c(N)ncnn23)[C@H](O)[C@@H]1O)OCc1ccc(C#N)cc1`, the EC50 was found to be 43 nM.

As to `CCCCCCCCCCCCCCCCCCOC[C@@H](COP(=O)(O)OC[C@H]1O[C@@](C#N)(c2ccc3c(N)ncnn23)[C@H](O)[C@@H]1O)OCc1ccc(OC)c(F)c1`, the EC50 amounted to 70 nM.

System in another data set: not listed separately
Put plainly: Metabolic stability in human liver microsomes assessed as half life. It counts as ADME, Microsome. To be noted: liver microsomes. (Liver microsomes are a subcellular fraction often used to study metabolism.)
Usually half-life stands for the time needed for the level to fall by half in the phase considered. On to `C[C@H](Cn1cnc2c(N)ncnc21)OCP(=O)(O)OCCOCCCCCCCCCCC#Cc1ccc(S(F)(F)(F)(F)F)cc1`, for which the half-life is above 120 min.

For the molecule `CCCCCCCCCCCCCCCCCCOCCOP(=O)(O)CO[C@H](C)Cn1cnc2c(N)ncnc21`, the half-life was found to be 105 min.

For `C[C@H](Cn1cnc2c(N)ncnc21)OCP(=O)(O)OCCOCCCCCCCCCCCCCCCC(F)(F)F`, the half-life was above 120 min.

Turning to `C[C@H](Cn1cnc2c(N)ncnc21)OCP(=O)(O)OCCOCCCCCCCCCCCCc1ccc(S(F)(F)(F)(F)F)cc1`, the half-life was above 120 min.

As for `CCCCCCCCCCCCCCCCCCCCOP(=O)(O)CO[C@H](C)Cn1cnc2c(N)ncnc21`, the half-life was determined as 49 min.

Take `CCCCCCCCCCCCCCCOCCCCOP(=O)(O)CO[C@H](C)Cn1cnc2c(N)ncnc21`: the half-life came out at 48 min.

With `CCCCCCCCCCCCCCOCCCCCOP(=O)(O)CO[C@H](C)Cn1cnc2c(N)ncnc21`, the half-life turned out to be 31 min.

As to `CCCCCCCCCCCCCCCCCOCCOP(=O)(O)CO[C@H](C)Cn1cnc2c(N)ncnc21`, the half-life was determined as 35 min.

On to `C[C@H](Cn1cnc2c(N)ncnc21)OCP(=O)(O)O` [TENOFOVIR ANHYDROUS], for which the half-life was above 120 min.

`C[C@H](Cn1cnc2c(N)ncnc21)OCP(=O)(O)OCCOCCCCCCCCCCCCCC#CC(F)(F)F`: the half-life is above 120 min.

Consider `C[C@H](Cn1cnc2c(N)ncnc21)OCP(=O)(O)OCCOCCCCCCCCCCCCCCCCC(F)(F)F`, for which the half-life is above 120 min.

With `CCCCCCCCOCCCCCOCCCCCOP(=O)(O)CO[C@H](C)Cn1cnc2c(N)ncnc21`, the half-life is 12 min.

`C[C@H](Cn1cnc2c(N)ncnc21)OCP(=O)(O)OCCOCCCCCCCCCCCCCCC#CC(F)(F)F`: the half-life is above 120 min.

The data set is the same for the next values; noted with them: microsomes.
As for `CCCCCCCCCCCCCCCCSCCCOP(=O)(O)CO[C@H](C)Cn1cnc2c(N)ncnc21`, the t1/2 was found to be 42 min.

The next data set relates to SARS-CoV-2. Put plainly: Antiviral activity against SARS-CoV-2 2019-nCoV/USA_WA1/2020 infected in human Caco-2 cells assessed as reduction in viral replication pre-treated with compound for 30 mins followed by viral infection and measured after 48 hrs. It counts as functional, organism-based. To be noted: Severe acute respiratory syndrome coronavirus 2, 2019-nCoV/USA_WA1/2020, Caco-2.
As for `CCCCCCCCCCCCCCCCCCOC[C@@H](COP(=O)(O)OC[C@H]1O[C@@](C#N)(c2ccc3c(N)ncnn23)[C@H](O)[C@@H]1O)OCc1ccccc1`, the EC50 stood at 140 nM.

The next data set deals with SARS-CoV-2. Put plainly: Antiviral activity against SARS-CoV-2 2019-nCoV/USA_WA1/2020 infected in human Calu-3 cells assessed as reduction in viral replication pre-treated with compound for 30 mins followed by viral infection and measured after 48 hrs. The conditions noted are these: Severe acute respiratory syndrome coronavirus 2, 2019-nCoV/USA_WA1/2020, Calu-3. It counts as functional, organism-based.
As to `CCCCCCCCCCCCCCCCCCOC[C@@H](COP(=O)(O)OC[C@H]1O[C@@](C#N)(c2ccc3c(N)ncnn23)[C@H](O)[C@@H]1O)OCc1ccccc1`, the EC50 was 300 nM.

The target in another data set is Human immunodeficiency virus type 1 reverse transcriptase (Human immunodeficiency virus 1, UniProt Q72547). Put plainly: Inhibition of HIV-1 reverse transcriptase.
Conditions: not given
By IC50 is commonly meant the concentration that gives 50% inhibition. `C[C@H](Cn1cnc2c(N)ncnc21)OCP(=O)(O)OCCOCCCCCCCCCCC#Cc1ccc(S(F)(F)(F)(F)F)cc1`: it took 10 nM to reach half-maximal inhibition (IC50).

Consider `CCCCCCCCCCCCCCCCCCOCCOP(=O)(O)CO[C@H](C)Cn1cnc2c(N)ncnc21`, for which inhibition was half-maximal at 3 nM (IC50).

Consider `C[C@H](Cn1cnc2c(N)ncnc21)OCP(=O)(O)OCCOCCCCCCCCCCCCCCCC(F)(F)F`, for which the IC50 worked out at 8 nM.

Regarding `C[C@H](Cn1cnc2c(N)ncnc21)OCP(=O)(O)OCCOCCCCCCCCCCCCc1ccc(S(F)(F)(F)(F)F)cc1`, 20 nM corresponded to half-maximal inhibition (IC50).

The molecule `CCCCCCCCCCCCCCCCCCCCOP(=O)(O)CO[C@H](C)Cn1cnc2c(N)ncnc21` displayed an IC50 of 127 nM.

As for `CCCCCCCCCCCCCCCOCCCCOP(=O)(O)CO[C@H](C)Cn1cnc2c(N)ncnc21`, the IC50 amounted to 30 nM.

`CCCCOCCCCCOCCCCCOCCCOP(=O)(O)CO[C@H](C)Cn1cnc2c(N)ncnc21` had an IC50 of 32000 nM.

`CCCCCCCCCCCCCCCCSCCCOP(=O)(O)CO[C@H](C)Cn1cnc2c(N)ncnc21` showed an IC50 of 10 nM.

In turn, `CCCCCCCCCCCCCCOCCCCCOP(=O)(O)CO[C@H](C)Cn1cnc2c(N)ncnc21` showed an IC50 of 52 nM.

For `CCCCCCCCCCCCCCCCCOCCOP(=O)(O)CO[C@H](C)Cn1cnc2c(N)ncnc21`, it took 3 nM to reach half-maximal inhibition (IC50).

In the case of `C[C@H](Cn1cnc2c(N)ncnc21)OCP(=O)(O)O` [TENOFOVIR ANHYDROUS], it took 1600 nM to reach half-maximal inhibition (IC50).

`C[C@H](Cn1cnc2c(N)ncnc21)OCP(=O)(O)OCCOCCCCCCCCCCCCCC#CC(F)(F)F`: the IC50 stood at 16 nM.

On to `C[C@H](Cn1cnc2c(N)ncnc21)OCP(=O)(O)OCCOCCCCCCCCCCCCCCCCC(F)(F)F`, for which the IC50 is 10 nM.

For the molecule `CCCCCCCCOCCCCCOCCCCCOP(=O)(O)CO[C@H](C)Cn1cnc2c(N)ncnc21`, the IC50 worked out at 4000 nM.

Take `C[C@H](Cn1cnc2c(N)ncnc21)OCP(=O)(O)OCCOCCCCCCCCCCCCCCC#CC(F)(F)F`: the concentration for half-maximal inhibition (IC50) is 10 nM.

The subject of a further data set is SARS-CoV-2. Put plainly: Antiviral activity against SARS-CoV-2 2019-nCoV/USA_WA1/2020 infected in human Huh7.5 cells assessed as reduction in viral replication pre-treated with compound for 30 mins followed by viral infection and measured after 48 hrs. It counts as functional, organism-based. To be noted: Severe acute respiratory syndrome coronavirus 2, 2019-nCoV/USA_WA1/2020, Huh7.5.
Take `CCCCCCCCCCCCCCCCCCOC[C@@H](COP(=O)(O)OC[C@H]1O[C@@](C#N)(c2ccc3c(N)ncnn23)[C@H](O)[C@@H]1O)OCc1ccccc1`: the EC50 is 300 nM.

System in a further data set: not listed separately
Put plainly: Cytotoxicity against African green monkey Vero E6 cells. It counts as toxicity, cell-based, Vero C1008. To be noted: chlorocebus sabaeus.
One may read the CC50 as the concentration that lowers cell viability or growth by half. In the case of `C[C@H](Cn1cnc2c(N)ncnc21)OCP(=O)(O)OCCOCCCCCCCCCCC#Cc1ccc(S(F)(F)(F)(F)F)cc1`, the CC50 is above 100 µM.

For `CCCCCCCCCCCCCCCCCCOCCOP(=O)(O)CO[C@H](C)Cn1cnc2c(N)ncnc21`, the midpoint of cytotoxicity, the CC50, lay at 53.8 µM.

Consider `C[C@H](Cn1cnc2c(N)ncnc21)OCP(=O)(O)OCCOCCCCCCCCCCCCCCCC(F)(F)F`, for which the CC50 is above 100 µM.

Molecule `C[C@H](Cn1cnc2c(N)ncnc21)OCP(=O)(O)OCCOCCCCCCCCCCCCc1ccc(S(F)(F)(F)(F)F)cc1` displayed a CC50 above 100 µM.

As for `CCCCCCCCCCCCCCCCCCCCOP(=O)(O)CO[C@H](C)Cn1cnc2c(N)ncnc21`, it took 13.2 µM to reach half-maximal cytotoxicity (CC50).

As to `CCCCCCCCCCCCCCCOCCCCOP(=O)(O)CO[C@H](C)Cn1cnc2c(N)ncnc21`, the CC50 was above 100 µM.

For the molecule `CCCCOCCCCCOCCCCCOCCCOP(=O)(O)CO[C@H](C)Cn1cnc2c(N)ncnc21`, the CC50 was above 100 µM.

Molecule `CCCCCCCCCCCCCCCCSCCCOP(=O)(O)CO[C@H](C)Cn1cnc2c(N)ncnc21` gave a CC50 of 49.8 µM.

Take `CCCCCCCCCCCCCCOCCCCCOP(=O)(O)CO[C@H](C)Cn1cnc2c(N)ncnc21`: the CC50 was above 100 µM.

The molecule `CCCCCCCCCCCCCCCCCOCCOP(=O)(O)CO[C@H](C)Cn1cnc2c(N)ncnc21` showed a CC50 of 69.6 µM.

`C[C@H](Cn1cnc2c(N)ncnc21)OCP(=O)(O)O` [TENOFOVIR ANHYDROUS] came in with a CC50 of 35.4 µM.

In turn, `C[C@H](Cn1cnc2c(N)ncnc21)OCP(=O)(O)OCCOCCCCCCCCCCCCCC#CC(F)(F)F` gave a CC50 above 100 µM.

The molecule `C[C@H](Cn1cnc2c(N)ncnc21)OCP(=O)(O)OCCOCCCCCCCCCCCCCCCCC(F)(F)F` returned a CC50 of 85.1 µM.

`CCCCCCCCOCCCCCOCCCCCOP(=O)(O)CO[C@H](C)Cn1cnc2c(N)ncnc21`: the cytotoxic concentration (CC50) was above 100 µM.

`C[C@H](Cn1cnc2c(N)ncnc21)OCP(=O)(O)OCCOCCCCCCCCCCCCCCC#CC(F)(F)F` yielded a CC50 above 100 µM.
